Experimental data from the supplement of paper PMC10307832.

Tests used:
Experiment in all cases: relative viability (nuclei count vs DMSO), 5 days (fraction); higher = more cells survive
[1] = compound: CCN1C(=O)C2=CC(=C(N=C2N(C1=O)C3CC3)N)C(=O)N
Procedure, shortened: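 Five library-drug doses spaced by √10 were pinned onto vehicle-anchored 1536-well plates of lung cancer cell lines that had been kept overnight at 37 °C. Cells went 5 days without medium change, then were fixed, permeabilised and Hoechst-stained together, imaged at 4× and counted by MetaXpress. Viability is the ratio of treated-well to vehicle-well nuclei, taken as a median over plates. Plates required control CV below 25% and at least one doubling.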

[2] = compound: CCN1C(=O)C2=CC(=C(N=C2N(C1=O)C3CC3)N)C(=O)N + CCNC(=O)c1noc(-c2cc(C(C)C)c(O)cc2O)c1-c1ccc(CN2CCOCC2)cc1 [Luminespib] (partner 0.01 µM)
Procedure, shortened: (§1)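 Values are medians from duplicate plates. Each reflects relative viability, defined as the nuclei count of treated wells over that of vehicle wells. Lung cancer cell lines in 1536-well plates were pin-tool dosed one day after seeding with one drug alone or with a fixed anchor-drug dose plus five library-drug doses (not always all listed) in √10 steps, then fixed, stained and imaged at 4× after 5 days.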

[3] = compound: CCN1C(=O)C2=CC(=C(N=C2N(C1=O)C3CC3)N)C(=O)N + COc1cc2c(Oc3ccc(NC(=O)C4(C(=O)Nc5ccc(F)cc5)CC4)cc3F)ccnc2cc1OCCCN1CCOCC1 [Foretinib] (partner 0.25 µM)
Procedure, shortened: as §1

[4] = compound: CCN1C(=O)C2=CC(=C(N=C2N(C1=O)C3CC3)N)C(=O)N + COc1cccc2cc(-c3nc([C@H]4CC[C@H](C(=O)O)CC4)n4ncnc(N)c34)[nH]c12 [OSI-027] (partner 0.5 µM)
Procedure, shortened: as §1

[5] = compound: CCN1C(=O)C2=CC(=C(N=C2N(C1=O)C3CC3)N)C(=O)N + Cc1cc(Nc2cc(N3CCN(C)CC3)nc(Sc3ccc(NC(=O)C4CC4)cc3)n2)n[nH]1 [Tozasertib] (partner 0.1 µM)
Procedure, shortened: as §1

[6] = compound: CCN1C(=O)C2=CC(=C(N=C2N(C1=O)C3CC3)N)C(=O)N + Cc1nc(Nc2ncc(C(=O)Nc3c(C)cccc3Cl)s2)cc(N2CCN(CCO)CC2)n1 [Dasatinib] (partner 0.075 µM)
Procedure, shortened: as §1

[7] = compound: CCN1C(=O)C2=CC(=C(N=C2N(C1=O)C3CC3)N)C(=O)N + N=C(N)NC(=N)NCCc1ccccc1 [Phenformin] (partner 250 µM)
Procedure, shortened: as §1

[8] = compound: CCN1C(=O)C2=CC(=C(N=C2N(C1=O)C3CC3)N)C(=O)N + CC(=O)Nc1cccc(-n2c(=O)n(C3CC3)c(=O)c3c(Nc4ccc(I)cc4F)n(C)c(=O)c(C)c32)c1 [Trametinib] (partner 0.02 µM)
Procedure, shortened: as §1

[9] = compound: CCN1C(=O)C2=CC(=C(N=C2N(C1=O)C3CC3)N)C(=O)N + CC(=O)c1c(C)c2cnc(Nc3ccc(N4CCNCC4)cn3)nc2n(C2CCCC2)c1=O [Palbociclib] (partner 0.5 µM)
Procedure, shortened: as §1

[10] = compound: CCN1C(=O)C2=CC(=C(N=C2N(C1=O)C3CC3)N)C(=O)N + NC(=O)Nc1cc(-c2cccc(F)c2)sc1C(=O)N[C@H]1CCCNC1 [AZD7762] (partner 0.2 µM)
Procedure, shortened: as §1

[11] = compound: CCN1C(=O)C2=CC(=C(N=C2N(C1=O)C3CC3)N)C(=O)N + Nc1nc2[nH]cc(CCc3ccc(C(=O)N[C@@H](CCC(=O)O)C(=O)O)cc3)c2c(=O)[nH]1 [Pemetrexed] (partner 0.2 µM)
Procedure, shortened: as §1

[12] = compound: CCN1C(=O)C2=CC(=C(N=C2N(C1=O)C3CC3)N)C(=O)N + Nc1ncn([C@H]2C[C@H](O)[C@@H](CO)O2)c(=O)n1 [Decitabine] (partner 2 µM)
Procedure, shortened: as §1

[13] = compound: CCN1C(=O)C2=CC(=C(N=C2N(C1=O)C3CC3)N)C(=O)N + O=C(CCCCCCC(=O)Nc1ccccc1)NO [Vorinostat] (partner 1 µM)
Procedure, shortened: as §1

[14] = compound: CCN1C(=O)C2=CC(=C(N=C2N(C1=O)C3CC3)N)C(=O)N + O=C(c1cc(Cc2n[nH]c(=O)c3ccccc23)ccc1F)N1CCN(C(=O)C2CC2)CC1 [Olaparib] (partner 8 µM)
Procedure, shortened: as §1

NCI-H1623
relative viability ([1]; 0.253 µM): 0.922
relative viability ([1]; 0.8 µM): 0.992
relative viability ([1]; 2.53 µM): 1.02
relative viability ([1]; 8 µM): 1.13
relative viability ([2]; first compound 0.253 µM): 0.454
relative viability ([2]; first compound 0.8 µM): 0.452
relative viability ([2]; first compound 2.53 µM): 0.546
relative viability ([2]; first compound 8 µM): 0.473
relative viability ([3]; first compound 0.253 µM): 0.856
relative viability ([3]; first compound 0.8 µM): 0.862
relative viability ([3]; first compound 2.53 µM): 0.94
relative viability ([3]; first compound 8 µM): 0.939
relative viability ([4]; first compound 0.253 µM): 0.439
relative viability ([4]; first compound 0.8 µM): 0.428
relative viability ([4]; first compound 2.53 µM): 0.455
relative viability ([4]; first compound 8 µM): 0.446
relative viability ([5]; first compound 0.253 µM): 0.405
relative viability ([5]; first compound 0.8 µM): 0.442
relative viability ([5]; first compound 2.53 µM): 0.438
relative viability ([5]; first compound 8 µM): 0.48
relative viability ([6]; first compound 0.253 µM): 0.518
relative viability ([6]; first compound 0.8 µM): 0.589
relative viability ([6]; first compound 2.53 µM): 0.627
relative viability ([6]; first compound 8 µM): 0.595
relative viability ([7]; first compound 0.253 µM): 0.514
relative viability ([7]; first compound 0.8 µM): 0.59
relative viability ([7]; first compound 2.53 µM): 0.63
relative viability ([7]; first compound 8 µM): 0.567

NCI-H1648
relative viability ([1]; 0.253 µM): 0.835
relative viability ([1]; 0.8 µM): 0.932
relative viability ([1]; 2.53 µM): 0.89
relative viability ([1]; 8 µM): 0.851
relative viability ([8]; first compound 0.253 µM): 0.45
relative viability ([8]; first compound 2.53 µM): 0.245
relative viability ([8]; first compound 8 µM): 0.386
relative viability ([9]; first compound 0.253 µM): 0.301
relative viability ([9]; first compound 2.53 µM): 0.243
relative viability ([9]; first compound 8 µM): 0.273
relative viability ([4]; first compound 0.253 µM): 0.265
relative viability ([4]; first compound 0.8 µM): 0.271
relative viability ([4]; first compound 2.53 µM): 0.259
relative viability ([4]; first compound 8 µM): 0.278
relative viability ([5]; first compound 0.253 µM): 0.416
relative viability ([5]; first compound 0.8 µM): 0.526
relative viability ([5]; first compound 2.53 µM): 0.423
relative viability ([5]; first compound 8 µM): 0.53
relative viability ([10]; first compound 0.253 µM): 0.706
relative viability ([10]; first compound 2.53 µM): 0.646
relative viability ([10]; first compound 8 µM): 0.568
relative viability ([11]; first compound 0.253 µM): 0.735
relative viability ([11]; first compound 2.53 µM): 0.64
relative viability ([11]; first compound 8 µM): 0.585
relative viability ([12]; first compound 0.253 µM): 0.394
relative viability ([12]; first compound 2.53 µM): 0.429
relative viability ([12]; first compound 8 µM): 0.445
relative viability ([13]; first compound 0.253 µM): 0.488
relative viability ([13]; first compound 2.53 µM): 0.219
relative viability ([13]; first compound 8 µM): 0.9
relative viability ([14]; first compound 0.253 µM): 0.914
relative viability ([14]; first compound 2.53 µM): 1.07
relative viability ([14]; first compound 8 µM): 0.883

NCI-H2342
relative viability ([1]; 0.253 µM): 1.04
relative viability ([1]; 0.8 µM): 0.821
relative viability ([1]; 2.53 µM): 0.907
relative viability ([1]; 8 µM): 0.948
relative viability ([8]; first compound 0.253 µM): 0.795
relative viability ([8]; first compound 0.8 µM): 0.8
relative viability ([8]; first compound 2.53 µM): 0.756
relative viability ([8]; first compound 8 µM): 0.857
relative viability ([9]; first compound 0.253 µM): 0.549
relative viability ([9]; first compound 0.8 µM): 0.533
relative viability ([9]; first compound 2.53 µM): 0.426
relative viability ([9]; first compound 8 µM): 0.461
relative viability ([2]; first compound 0.253 µM): 0.756
relative viability ([2]; first compound 0.8 µM): 0.761
relative viability ([2]; first compound 2.53 µM): 0.747
relative viability ([2]; first compound 8 µM): 0.784
relative viability ([3]; first compound 0.253 µM): 1.08
relative viability ([3]; first compound 0.8 µM): 0.941
relative viability ([3]; first compound 2.53 µM): 1.1
relative viability ([3]; first compound 8 µM): 1.03
relative viability ([4]; first compound 0.253 µM): 0.612
relative viability ([4]; first compound 0.8 µM): 0.568
relative viability ([4]; first compound 2.53 µM): 0.704
relative viability ([4]; first compound 8 µM): 0.524
relative viability ([5]; first compound 0.253 µM): 0.512
relative viability ([5]; first compound 0.8 µM): 0.533
relative viability ([5]; first compound 2.53 µM): 0.544
relative viability ([5]; first compound 8 µM): 0.54
relative viability ([6]; first compound 0.253 µM): 0.27
relative viability ([6]; first compound 0.8 µM): 0.294
relative viability ([6]; first compound 2.53 µM): 0.349
relative viability ([6]; first compound 8 µM): 0.323
relative viability ([7]; first compound 0.253 µM): 0.556
relative viability ([7]; first compound 0.8 µM): 0.547
relative viability ([7]; first compound 2.53 µM): 0.666
relative viability ([7]; first compound 8 µM): 0.532
relative viability ([10]; first compound 0.253 µM): 0.527
relative viability ([10]; first compound 0.8 µM): 0.426
relative viability ([10]; first compound 2.53 µM): 0.514
relative viability ([10]; first compound 8 µM): 0.503
relative viability ([11]; first compound 0.253 µM): 0.781
relative viability ([11]; first compound 0.8 µM): 0.746
relative viability ([11]; first compound 2.53 µM): 0.802
relative viability ([11]; first compound 8 µM): 0.817
relative viability ([12]; first compound 0.253 µM): 0.642
relative viability ([12]; first compound 0.8 µM): 0.729
relative viability ([12]; first compound 2.53 µM): 0.701
relative viability ([12]; first compound 8 µM): 0.766
relative viability ([13]; first compound 0.253 µM): 0.719
relative viability ([13]; first compound 0.8 µM): 0.812
relative viability ([13]; first compound 2.53 µM): 0.817
relative viability ([13]; first compound 8 µM): 0.645
relative viability ([14]; first compound 0.253 µM): 0.42
relative viability ([14]; first compound 0.8 µM): 0.467
relative viability ([14]; first compound 2.53 µM): 0.421
relative viability ([14]; first compound 8 µM): 0.492
